# Data from article PMC5104425, “A Novel Selective Inhibitor of Delta-5 Desaturase Lowers Insulin Resistance and Reduces Body Weight in Diet-Induced Obese C57BL/6J Mice” (PLoS ONE, 2016).
# Structures can show the parent of a compound that is named as a salt.
# Experiments:
# Assay type in all cases: in vivo, C57BL/6J mice
# [1] = test system: D5D; test: Blood fatty acids (PD markers AA, DGLA, EPA, DHA) after 6-week treatment in DIO mice; settings: sibutramine 30 mg/kg, 6 weeks
# Protocol: Fatty acids were extracted from blood and tissues by adding hexane-isopropanol-butylated hydroxytoluene (60:40:0.01, v/v/w). Samples were vortexed for 30 min. The hexane phase was removed and evaporated to dryness under nitrogen stream and vacuum. Dried samples were dissolved in methanol and analyzed by HPLC.
# (§1) Mice were fed a high-fat diet (HFD) that has 60% kcal from fat and contains 0.09% (w/w) AA (D12492; Research diets, Inc., see S1 Table for fatty acid profile) from 5 weeks of age, and they were divided into 5 groups (7 animals per group) at 11 weeks of age based on BW and daily food intake. In this experiment, 30 mg/kg sibutramine, a […], was used as a positive control for anti-obesity effects. Mice were orally administered compound-326 at doses of 0.1, 1, and 10 mg/kg, sibutramine at a dose of 30 mg/kg, or vehicle for 6 weeks. After 6 weeks, blood concentrations of DGLA and AA under non-fasting condition were evaluated as pharmacodynamics (PD) markers, and oral glucose tolerance test (OGTT) was performed.
# [2] = test system: DIO mice; test: Anti-obesity effects in DIO mice, 6-week treatment (HFD D12492): BW, calorie intake, observations; settings: sibutramine 30 mg/kg p.o.
# Protocol: In this report, we performed 3 independent studies in DIO mice to characterize anti-obesity effects of our D5D specific inhibitor. Male C57BL/6J mice were obtained from Charles River Laboratories (Yokohama, Japan) or CLEA Japan (Osaka, Japan). The mice were fed a laboratory chow and water ad libitum and housed in a 12-h light/dark cycle. Compound or vehicle was administered once daily between 15: 00–19:00 by oral gavage. Body weight (BW) and food intake were monitored throughout the experiment.
# as §1
# [3] = test system: DIO mice; test: Oral glucose tolerance test and HOMA-IR after 6-week treatment in DIO mice; settings: sibutramine 30 mg/kg, 6 weeks
# Protocol: as §1
# On the last day of the experiment, mice were given an oral glucose load (2 g/kg) after overnight fasting. Blood samples were collected at specified time points of 0 (pre-glucose/fasting glucose levels), 10, 30, 60, and 120 min post glucose load for the determination of plasma glucose as well as insulin levels. Plasma glucose was enzymatically measured with auto-analyzer 7180 (Hitachi High-Technologies Corporation, Tokyo, Japan). Plasma insulin was measured with mouse insulin ELISA kit (Shibayagi, Gunma, Japan). The total area under the glucose curve was determined from time 0 to 120 min (AUC0–120 min) after glucose administration. Homeostasis model assessment-insulin […] (HOMA-IR) was calculated using the formula: [(fasted PG: mg/dL)×(fasted insulin; μU/mL)[…]/405] [28].
structure (smiles),measurement,setting,value
"CC(C)CC(N(C)C)C1(c2ccc(Cl)cc2)CCC1 (stereo not drawn) [sibutramine, Sibutramine hydrochloride monohydrate, reference compound]",blood AA level,[1],slightly but significantly decreased
same,blood AA to DGLA ratio,[1],slightly but significantly decreased
same,blood DGLA level,[1],slightly but significantly decreased
same,BW,"[2]; 6 weeks, BW then increased in line with food intake",potent BW loss for a week
same,food intake,"[2]; from day 1, followed by a rebound",transient and potent decrease in food intake
same,HOMA-IR,[3],significantly improved
